Patent publication EP4772634A1, “DOUBLE-STRANDED RNA TARGETING COAGULATION FACTOR XI” (Chia Tai Tianqing Pharmaceutical Group Co., Ltd., priority 2023, dated 2025)

What was measured:
[1] = system: human coagulation factor XI protein; assay: In vivo activity in human coagulation factor XI model mice (Experimental Example 3), plasma FXI protein by ELISA; conditions: humanized mice
Experimental: The humanized mice used in this experimental example were purchased from Cyagen Biosciences Co., Ltd. The humanized mice were randomly divided into groups, with 4 mice per group. The compound and PBS control (pH = 7.2) were administered to each group of mice, respectively. The day of the first administration was designated as day 0 of the experiment. The corresponding compound solutions were administered via a single subcutaneous injection based on animal body weight, at administration doses of 1 mg/kg and 5 mg/kg. PBS control mice were each administered PBS, with an administration volume of 10 mL/kg body weight. Orbital blood was collected before administration and on day 7, day 14, day 28, day 42, and day 63 after administration. Plasma was separated, and the content of the coagulation factor XI protein in the plasma was measured at each time point.
About 165 µL of blood was collected from the orbital veins for plasma collection. A 3.8% trisodium citrate anticoagulant was added to the whole blood in a volume ratio of 1:9 (anticoagulant:[…], v/v), and the mixture was centrifuged at 3000 rpm at 20 °C for 15 min to collect plasma. The content of the coagulation factor XI protein in the plasma obtained from the above groups of mice (test groups administered the compound and PBS control group) was measured using a Human Coagulation Factor XI ELISA kit (Sigma, Cat. No. RAB1385-1KT).
(§1) The coagulation factor XI protein inhibition rate was calculated according to the following equation: [formula]
Table 11 lists the measurement of FXI protein content in animal plasma before and on day 7, day 14, day 28, day 42, and day 63 after a single subcutaneous administration of siRNA ligand conjugates (TD01M01L01, TD02M01L01) at doses of 1 mg/kg and 5 mg/kg to humanized homozygous mice. […] Table 11. In vivo experimental design

[2] = system: human coagulation factor XI protein; assay: In vivo activity in human coagulation factor XI model mice (Experimental Example 4), FXI protein by ELISA; conditions: female humanized homozygous mice, single subcutaneous 3 mg/kg
Experimental: The humanized mice used in this experimental example were purchased from Cyagen Biosciences Co., Ltd. The female humanized homozygous mice were randomly divided into groups, with 4 mice per group. The compound and PBS control (pH = 7.2) were administered to each group of mice, respectively. The day of the first administration was designated as day 0 of the experiment. The corresponding compound solutions were administered via a single subcutaneous injection based on animal body weight, at an administration dose of 3 mg/kg. PBS control mice were each administered PBS, with an administration volume of 10 mL/kg body weight. Orbital blood was collected before administration and on day 3, day 7, day 14, day 21, day 28, day 42, day 56, and day 70 after administration. Serum was separated, and the content of the coagulation factor XI protein in the serum at each time point was measured using a Human Coagulation Factor XI ELISA kit (Thermo, Batch No. 2350072722, Cat. No. EH118RB).
as §1
Table 13 lists the measurement of coagulation factor XI protein content in animal plasma before and on day 3, day 7, day 14, day 21, day 28, day 42, day 56, and day 70 after a single subcutaneous administration of siRNA ligand conjugates at a dose of 3 mg/kg to humanized homozygous mice. […] Table 13. In vivo experimental design

[3] = system: human coagulation factor XI protein; assay: In vivo activity in AAV-FXI model mice, serum FXI protein by ELISA; conditions: AAV-FXI mice (C57BL/6 male), single subcutaneous 3 mg/kg
Experimental: 4-6 week old C57BL/6 male mice were injected via the tail vein with 1 × 10^11 vg of AAV8-FXI (WZ Biosciences). On day 28 after modeling, mice with an hFXI protein content of greater than 100 ng/mL were selected. The mice were randomly divided into groups based on body weight and were injected with 3 mg/kg of the dsRNA ligand conjugate of the present application (amount calculated based on siRNA only) on day 0. Orbital blood was collected on day 7, day 14, day 35, and day 56. Serum was separated, and the content of the coagulation factor XI protein in the serum at each time point was measured using a Human Coagulation Factor XI ELISA kit (Thermo, Cat. No. EH118RB).
as §1
The content of the coagulation factor XI protein in animal serum was measured before and on day 7, day 14, day 35, and day 56 after a single subcutaneous administration of the dsRNA ligand conjugate of the present application at a dose of 3 mg/kg to AAV-FXI mice (see Table 15). […] Table 15. In vivo experimental design

[4] = single subcutaneous 1 mg/kg, D7
[5] = single subcutaneous 1 mg/kg, D14
[6] = single subcutaneous 1 mg/kg, D28
[7] = single subcutaneous 1 mg/kg, D42
[8] = single subcutaneous 1 mg/kg, D63
[9] = single subcutaneous 5 mg/kg, D7
[10] = single subcutaneous 5 mg/kg, D14
[11] = single subcutaneous 5 mg/kg, D28
[12] = single subcutaneous 5 mg/kg, D42
[13] = single subcutaneous 5 mg/kg, D63

Substance: TD01M01L01: siRNA ligand conjugate: TD01M01 with L01 (GalNAc) ligand at 3' end of sense strand SEQ ID NO 29; antisense SEQ ID NO 30 (sense GATCTCCAACTAAAATACT; antisense AGTATTTTAGTTGGAGATCCG; GalNAc L01 ligand at sense 3' end, 2'-OMe/2'-F, pattern not given here)
- Relative inhibition rate (%) of FXI protein [1, 4]: 58.1%
- Relative inhibition rate (%) of FXI protein [1, 5]: 67.5%
- Relative inhibition rate (%) of FXI protein [1, 6]: 58.6%
- Relative inhibition rate (%) of FXI protein [1, 7]: 68.8%
- Relative inhibition rate (%) of FXI protein [1, 8]: 41.3%
- Relative inhibition rate (%) of FXI protein [1, 9]: 90.5%
- Relative inhibition rate (%) of FXI protein [1, 10]: 92.8%
- Relative inhibition rate (%) of FXI protein [1, 11]: 89.5%
- Relative inhibition rate (%) of FXI protein [1, 12]: 91.8%
- Relative inhibition rate (%) of FXI protein [1, 13]: 74.4%

Substance: TD01M02L01: siRNA ligand conjugate: TD01M02 with L01 (GalNAc) ligand at 3' end of sense strand SEQ ID NO 31; antisense SEQ ID NO 32 (sense GATCTCCAACTAAAATACT; antisense AGTATTTTAGTTGGAGATCCG; GalNAc L01 ligand at sense 3' end, 2'-OMe/2'-F, pattern not given here)
- Relative inhibition rate (%) of FXI protein ([2]; D3): 69.3%
- Relative inhibition rate (%) of FXI protein ([2]; D7): 88.5%
- Relative inhibition rate (%) of FXI protein ([2]; D14): 91.8%
- Relative inhibition rate (%) of FXI protein ([2]; D21): 91.7%
- Relative inhibition rate (%) of FXI protein ([2]; D28): 91.3%
- Relative inhibition rate (%) of FXI protein ([2]; D42): 86.1%
- Relative inhibition rate (%) of FXI protein ([2]; D56): 76.1%
- Relative inhibition rate (%) of FXI protein ([2]; D70): 68.9%
- Relative inhibition rate (%) of FXI protein [1, 4]: 65.1%
- Relative inhibition rate (%) of FXI protein [1, 5]: 67.4%
- Relative inhibition rate (%) of FXI protein [1, 6]: 62.5%
- Relative inhibition rate (%) of FXI protein [1, 7]: 69.3%
- Relative inhibition rate (%) of FXI protein [1, 8]: 44.6%
- Relative inhibition rate (%) of FXI protein [1, 9]: 90.9%
- Relative inhibition rate (%) of FXI protein [1, 10]: 93.1%
- Relative inhibition rate (%) of FXI protein [1, 11]: 92.4%
- Relative inhibition rate (%) of FXI protein [1, 12]: 93.1%
- Relative inhibition rate (%) of FXI protein [1, 13]: 76.6%

Substance: TD02M01L01: siRNA ligand conjugate: TD02M01 with L01 (GalNAc) ligand at 3' end of sense strand SEQ ID NO 33; antisense SEQ ID NO 34 (sense GGATGATTTTCTTATATCA; antisense TGATATAAGAAAATCATCCTG; GalNAc L01 ligand at sense 3' end, 2'-OMe/2'-F, pattern not given here)
- Relative inhibition rate (%) of FXI protein [1, 4]: 61.5%
- Relative inhibition rate (%) of FXI protein [1, 5]: 63.9%
- Relative inhibition rate (%) of FXI protein [1, 6]: 49.2%
- Relative inhibition rate (%) of FXI protein [1, 7]: 52.9%
- Relative inhibition rate (%) of FXI protein [1, 8]: 41.1%
- Relative inhibition rate (%) of FXI protein [1, 9]: 91.8%
- Relative inhibition rate (%) of FXI protein [1, 10]: 94.0%
- Relative inhibition rate (%) of FXI protein [1, 11]: 87.8%
- Relative inhibition rate (%) of FXI protein [1, 12]: 89.4%
- Relative inhibition rate (%) of FXI protein [1, 13]: 69.0%

Substance: TD05M02L01: dsRNA ligand conjugate: TD05M02 with L01 (GalNAc) ligand at 3' end of sense strand SEQ ID NO 47; antisense SEQ ID NO 48 (sense CTTTTCAGGATGATTTTCT; antisense AGAAAATCATCCTGAAAAGAC; GalNAc L01 ligand at sense 3' end, 2'-OMe/2'-F, pattern not given here)
- Relative inhibition rate (%) of FXI protein ([3]; D7): 96.3%
- Relative inhibition rate (%) of FXI protein ([3]; D14): 96.6%
- Relative inhibition rate (%) of FXI protein ([3]; D35): 81.7%
- Relative inhibition rate (%) of FXI protein ([3]; D56): 51.0%

Substance: TD12M02L01: dsRNA ligand conjugate: TD12M02 with L01 (GalNAc) ligand at 3' end of sense strand SEQ ID NO 75; antisense SEQ ID NO 76 (sense TGATTTTCTTATATCAAGT; antisense ACTTGATATAAGAAAATCATC; GalNAc L01 ligand at sense 3' end, 2'-OMe/2'-F, pattern not given here)
- Relative inhibition rate (%) of FXI protein ([3]; D7): 88.4%
- Relative inhibition rate (%) of FXI protein ([3]; D14): 88.0%
